One block for each compound: values may come before it. Calls of active or inactive are those of the source.
How the values were obtained:
[1] = molecular target: T1, RNA-binding protein pos-1 (Caenorhabditis elegans, UniProt G5EF15); assay: inhibitors of POS-1/mex-3 RNA binding, dose response, biochemical, fluorescence polarization (AID 1964);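 also: purified POS-1 fused to maltose binding protein made in E. coli; potency of compounds blocking POS-1 binding to fluorescent RNA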
T1 sequence (G5EF15 whole entry): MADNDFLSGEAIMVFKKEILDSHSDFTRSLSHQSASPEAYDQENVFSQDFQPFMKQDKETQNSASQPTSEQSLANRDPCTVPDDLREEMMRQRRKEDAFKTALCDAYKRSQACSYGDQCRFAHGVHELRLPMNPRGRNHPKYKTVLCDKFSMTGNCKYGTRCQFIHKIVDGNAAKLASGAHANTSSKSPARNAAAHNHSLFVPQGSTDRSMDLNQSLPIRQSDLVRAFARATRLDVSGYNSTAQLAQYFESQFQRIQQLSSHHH

[2] = molecular target: T2, Zinc finger protein mex-5 (Caenorhabditis elegans, UniProt Q9XUB2); assay: MEX-5/TCR-2 RNA interaction inhibitors, dose response, biochemical, C. elegans, fluorescence polarization (AID 1960)
T2 sequence (Q9XUB2 whole entry): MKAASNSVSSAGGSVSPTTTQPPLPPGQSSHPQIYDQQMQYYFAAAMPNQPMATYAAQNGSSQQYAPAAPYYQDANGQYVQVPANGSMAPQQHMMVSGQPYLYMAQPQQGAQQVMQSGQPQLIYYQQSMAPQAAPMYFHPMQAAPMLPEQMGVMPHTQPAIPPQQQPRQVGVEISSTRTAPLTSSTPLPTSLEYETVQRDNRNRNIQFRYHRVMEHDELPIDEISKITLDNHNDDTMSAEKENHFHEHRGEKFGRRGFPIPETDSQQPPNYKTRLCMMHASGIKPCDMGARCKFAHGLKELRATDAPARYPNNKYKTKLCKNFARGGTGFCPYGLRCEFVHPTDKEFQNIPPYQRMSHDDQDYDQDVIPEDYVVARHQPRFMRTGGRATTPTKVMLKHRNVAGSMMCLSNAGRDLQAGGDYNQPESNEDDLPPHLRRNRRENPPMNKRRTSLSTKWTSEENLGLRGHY

[3] = molecular target: Intestinal-type alkaline phosphatase (Homo sapiens, UniProt P09923); assay: human intestinal alkaline phosphatase activators, dose response, biochemical, luminescence, uHTS hits (AID 463120); type: functional
Chain of Intestinal-type alkaline phosphatase (P09923 whole entry): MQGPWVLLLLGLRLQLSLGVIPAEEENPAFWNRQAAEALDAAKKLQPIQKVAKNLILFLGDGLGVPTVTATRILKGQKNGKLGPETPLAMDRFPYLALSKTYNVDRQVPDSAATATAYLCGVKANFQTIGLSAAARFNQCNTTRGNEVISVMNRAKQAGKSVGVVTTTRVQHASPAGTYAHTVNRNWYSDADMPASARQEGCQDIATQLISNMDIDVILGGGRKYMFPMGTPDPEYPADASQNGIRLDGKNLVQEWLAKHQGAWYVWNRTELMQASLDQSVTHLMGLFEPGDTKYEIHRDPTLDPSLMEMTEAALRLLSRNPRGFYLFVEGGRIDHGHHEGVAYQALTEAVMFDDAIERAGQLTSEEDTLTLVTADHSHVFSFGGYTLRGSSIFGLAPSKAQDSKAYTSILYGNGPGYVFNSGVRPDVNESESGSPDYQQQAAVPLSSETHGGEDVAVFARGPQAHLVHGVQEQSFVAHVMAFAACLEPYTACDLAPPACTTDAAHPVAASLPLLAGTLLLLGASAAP

[4] = molecular target: 72 kDa type IV collagenase (Homo sapiens, UniProt P08253); assay: Dose Response validation of uHTS RPN11 inhibitor hits using a MMP-2 Fluorescence assay.; type: functional
Chain of 72 kDa type IV collagenase (P08253 whole entry): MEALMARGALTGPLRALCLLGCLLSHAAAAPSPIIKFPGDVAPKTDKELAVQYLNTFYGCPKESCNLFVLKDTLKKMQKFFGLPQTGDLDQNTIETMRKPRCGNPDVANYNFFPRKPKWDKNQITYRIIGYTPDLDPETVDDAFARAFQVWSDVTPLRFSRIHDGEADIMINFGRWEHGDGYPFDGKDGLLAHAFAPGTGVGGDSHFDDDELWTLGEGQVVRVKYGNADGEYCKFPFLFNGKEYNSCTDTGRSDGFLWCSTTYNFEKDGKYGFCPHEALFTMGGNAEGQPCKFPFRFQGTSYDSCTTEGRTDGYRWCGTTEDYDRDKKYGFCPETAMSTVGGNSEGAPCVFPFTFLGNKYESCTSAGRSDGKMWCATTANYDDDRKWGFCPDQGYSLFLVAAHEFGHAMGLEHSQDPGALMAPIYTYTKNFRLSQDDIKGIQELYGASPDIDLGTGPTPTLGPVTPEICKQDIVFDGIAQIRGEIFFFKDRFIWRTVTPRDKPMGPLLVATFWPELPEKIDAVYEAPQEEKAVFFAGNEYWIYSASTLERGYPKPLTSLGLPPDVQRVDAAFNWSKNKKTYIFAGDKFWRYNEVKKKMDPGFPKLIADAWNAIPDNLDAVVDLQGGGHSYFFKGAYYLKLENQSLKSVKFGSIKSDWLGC

[5] = molecular target: 26S proteasome non-ATPase regulatory subunit 14 (Homo sapiens, UniProt O00487); assay: inhibition of proteasome subunit RPN11 – biochemical, fluorescence polarization, uHTS hits, confirmation (AID 602368); type: functional
Chain of 26S proteasome non-ATPase regulatory subunit 14 (O00487 whole entry): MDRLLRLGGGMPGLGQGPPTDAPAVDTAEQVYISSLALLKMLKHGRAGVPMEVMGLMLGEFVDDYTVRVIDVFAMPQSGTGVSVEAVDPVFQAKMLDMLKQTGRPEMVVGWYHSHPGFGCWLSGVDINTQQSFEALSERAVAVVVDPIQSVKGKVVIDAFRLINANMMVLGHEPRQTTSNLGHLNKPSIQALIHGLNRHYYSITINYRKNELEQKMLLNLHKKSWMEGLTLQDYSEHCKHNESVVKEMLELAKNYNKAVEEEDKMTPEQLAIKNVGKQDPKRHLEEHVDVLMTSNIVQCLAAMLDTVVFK

[6] = molecular target: Prothrombin (Bos taurus, UniProt P00735); assay: thrombin inhibition, dose response, biochemical, fluorescence polarization, uHTS hits (AID 602369); type: functional
[7] = molecular target: Steroidogenic factor 1 (Homo sapiens, UniProt Q13285); assay: Counterscreen for inverse agonists of the liver receptor homolog-1 (LRH-1; NR5A2): Luminescence-based cell-based high throughput dose response assay to identify inverse agonists of the Steroidogenic Factor 1 Nuclear Receptor (SF1; NR5A1).; type: functional
Chain of Steroidogenic factor 1 (Q13285 whole entry): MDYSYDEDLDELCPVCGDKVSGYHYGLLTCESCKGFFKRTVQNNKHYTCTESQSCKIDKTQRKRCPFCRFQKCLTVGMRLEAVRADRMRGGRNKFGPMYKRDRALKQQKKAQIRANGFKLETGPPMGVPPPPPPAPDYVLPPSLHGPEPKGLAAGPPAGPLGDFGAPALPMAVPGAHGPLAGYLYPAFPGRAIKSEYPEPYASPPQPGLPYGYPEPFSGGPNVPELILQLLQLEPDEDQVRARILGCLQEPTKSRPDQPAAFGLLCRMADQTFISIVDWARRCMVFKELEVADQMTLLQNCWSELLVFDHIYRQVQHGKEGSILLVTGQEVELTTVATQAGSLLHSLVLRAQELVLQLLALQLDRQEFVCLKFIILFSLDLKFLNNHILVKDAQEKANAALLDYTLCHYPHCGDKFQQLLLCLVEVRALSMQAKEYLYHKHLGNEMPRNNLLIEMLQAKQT

[8] = molecular target: Nuclear receptor subfamily 5 group A member 2 (Homo sapiens, UniProt O00482); type: functional, cell-based;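 also: HEK293T cells transfected with LRH-1 and a StAR promoter luciferase reporter; potency for inhibitors that lower LRH-1 driven reporter light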
Chain of Nuclear receptor subfamily 5 group A member 2 (O00482 whole entry): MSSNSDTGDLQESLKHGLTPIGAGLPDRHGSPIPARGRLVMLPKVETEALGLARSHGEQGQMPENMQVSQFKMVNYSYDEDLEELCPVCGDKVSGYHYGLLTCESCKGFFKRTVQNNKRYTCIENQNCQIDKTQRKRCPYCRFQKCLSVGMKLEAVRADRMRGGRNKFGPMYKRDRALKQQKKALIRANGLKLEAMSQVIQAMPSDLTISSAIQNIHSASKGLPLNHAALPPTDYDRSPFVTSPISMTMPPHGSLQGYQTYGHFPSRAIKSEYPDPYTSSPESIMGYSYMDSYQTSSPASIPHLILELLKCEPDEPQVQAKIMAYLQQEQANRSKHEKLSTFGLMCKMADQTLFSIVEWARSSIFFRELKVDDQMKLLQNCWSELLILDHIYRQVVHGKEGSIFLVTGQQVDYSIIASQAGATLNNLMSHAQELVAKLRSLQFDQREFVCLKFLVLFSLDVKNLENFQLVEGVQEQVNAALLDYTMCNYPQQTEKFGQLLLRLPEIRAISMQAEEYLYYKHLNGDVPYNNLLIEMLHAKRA

[9] = StAR promoter reporter inhibition counter-screen, dose response, counter-screen for LRH-1 inverse agonist project, cell-based, luminescence, luciferase reporter (AID 651969); type: functional
[10] = molecular target: T3, Tyrosine-protein phosphatase non-receptor type 11 (Homo sapiens, UniProt Q06124); assay: SHP2 phosphatase inhibition, dose response, selectivity assay for STEP inhibitor project, biochemical (AID 602367); type: functional; conditions: read-out: IC50_Mean
T3 sequence (Q06124 whole entry): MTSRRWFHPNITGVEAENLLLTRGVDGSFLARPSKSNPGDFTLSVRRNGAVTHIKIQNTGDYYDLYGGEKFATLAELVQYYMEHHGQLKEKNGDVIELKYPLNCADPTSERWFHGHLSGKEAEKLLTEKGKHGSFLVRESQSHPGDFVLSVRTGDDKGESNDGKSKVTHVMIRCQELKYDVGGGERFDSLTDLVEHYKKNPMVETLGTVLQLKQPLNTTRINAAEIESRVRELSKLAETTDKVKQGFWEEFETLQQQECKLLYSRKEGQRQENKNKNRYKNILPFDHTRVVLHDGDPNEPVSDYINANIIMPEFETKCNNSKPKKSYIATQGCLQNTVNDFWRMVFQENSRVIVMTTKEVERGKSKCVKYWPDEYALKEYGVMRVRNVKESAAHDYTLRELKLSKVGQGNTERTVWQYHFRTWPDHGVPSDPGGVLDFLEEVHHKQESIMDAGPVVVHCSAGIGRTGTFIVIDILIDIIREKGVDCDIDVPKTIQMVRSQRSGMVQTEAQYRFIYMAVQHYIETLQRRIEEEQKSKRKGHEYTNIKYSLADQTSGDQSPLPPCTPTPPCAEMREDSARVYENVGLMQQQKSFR

[11] = molecular target: T4, Carboxy-terminal domain RNA polymerase II polypeptide A small phosphatase 1 (Homo sapiens, UniProt Q9GZU7); assay: inhibitors of CTDSP1, concentration-response testing, biochemical assay, absorbance-based, actives from ultra-high-throughput screening (AID 540297); type: functional
T4 sequence (Q9GZU7 whole entry): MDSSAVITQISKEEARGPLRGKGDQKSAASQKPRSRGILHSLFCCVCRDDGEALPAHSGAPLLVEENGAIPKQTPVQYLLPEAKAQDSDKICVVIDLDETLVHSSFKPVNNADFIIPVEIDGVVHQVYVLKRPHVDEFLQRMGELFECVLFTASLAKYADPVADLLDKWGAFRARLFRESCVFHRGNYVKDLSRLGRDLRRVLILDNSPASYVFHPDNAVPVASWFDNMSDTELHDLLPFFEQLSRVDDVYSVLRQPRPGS

[12] = molecular target: Dual specificity protein phosphatase 3 (Homo sapiens, UniProt P51452); assay: VHR phosphatase inhibition, dose response, selectivity assay for STEP inhibitor project, biochemical (AID 602374); type: functional; conditions: read-out: IC50_Mean
Chain of Dual specificity protein phosphatase 3 (P51452 whole entry): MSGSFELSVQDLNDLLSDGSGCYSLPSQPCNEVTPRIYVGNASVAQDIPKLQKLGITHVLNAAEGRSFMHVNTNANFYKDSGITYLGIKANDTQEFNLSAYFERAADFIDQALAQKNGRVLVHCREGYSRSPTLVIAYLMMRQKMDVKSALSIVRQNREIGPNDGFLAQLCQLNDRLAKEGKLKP

[13] = molecular target: T5, Tyrosine-protein phosphatase non-receptor type 5 (Homo sapiens, UniProt P54829); assay: STEP phosphatase inhibitors, confirmation, biochemical, fluorescence intensity, uHTS hits (AID 602372); type: functional; conditions: read-out: IC50_Mean
T5 sequence (P54829 whole entry): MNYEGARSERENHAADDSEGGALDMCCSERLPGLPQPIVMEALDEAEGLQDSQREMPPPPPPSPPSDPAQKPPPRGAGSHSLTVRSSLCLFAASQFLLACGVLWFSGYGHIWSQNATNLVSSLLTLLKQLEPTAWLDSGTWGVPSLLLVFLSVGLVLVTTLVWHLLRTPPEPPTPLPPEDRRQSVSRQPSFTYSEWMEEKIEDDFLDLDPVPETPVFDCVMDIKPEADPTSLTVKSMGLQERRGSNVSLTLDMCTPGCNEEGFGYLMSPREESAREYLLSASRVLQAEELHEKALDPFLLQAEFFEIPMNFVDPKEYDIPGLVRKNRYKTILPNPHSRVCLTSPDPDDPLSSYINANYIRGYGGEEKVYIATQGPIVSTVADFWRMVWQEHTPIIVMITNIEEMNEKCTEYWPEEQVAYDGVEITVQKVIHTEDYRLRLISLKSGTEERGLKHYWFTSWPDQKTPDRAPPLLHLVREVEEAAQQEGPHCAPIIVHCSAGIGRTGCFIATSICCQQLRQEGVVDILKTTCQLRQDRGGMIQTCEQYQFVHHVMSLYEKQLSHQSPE

[14] = molecular target: Glucose-6-phosphate 1-dehydrogenase (Homo sapiens, UniProt P11413); assay: human G6PD enzyme inhibitors, dose response, selectivity assay for P. falciparum G6PD inhibitor project, biochemical, fluorescence (AID 504792); type: functional
Chain of Glucose-6-phosphate 1-dehydrogenase (P11413 whole entry): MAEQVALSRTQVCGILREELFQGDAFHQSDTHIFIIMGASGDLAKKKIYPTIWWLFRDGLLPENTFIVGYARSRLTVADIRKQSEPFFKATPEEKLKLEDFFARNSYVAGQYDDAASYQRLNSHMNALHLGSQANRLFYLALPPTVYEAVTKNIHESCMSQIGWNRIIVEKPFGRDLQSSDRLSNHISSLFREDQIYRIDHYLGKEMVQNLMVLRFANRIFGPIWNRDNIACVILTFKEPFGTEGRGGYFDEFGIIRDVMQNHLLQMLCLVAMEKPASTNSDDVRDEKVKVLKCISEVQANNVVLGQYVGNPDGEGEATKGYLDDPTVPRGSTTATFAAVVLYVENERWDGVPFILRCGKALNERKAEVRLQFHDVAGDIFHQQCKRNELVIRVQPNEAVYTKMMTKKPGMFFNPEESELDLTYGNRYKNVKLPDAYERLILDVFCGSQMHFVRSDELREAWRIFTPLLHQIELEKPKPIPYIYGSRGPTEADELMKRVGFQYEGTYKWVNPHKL

[15] = molecular target: Large T antigen (Simian virus 40, UniProt P03070); type: functional, Betapolyomavirus macacae;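 also: Confirmatory-stage PubChem screen for compounds that inhibit SV40 T antigen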
Chain of Large T antigen (P03070 whole entry): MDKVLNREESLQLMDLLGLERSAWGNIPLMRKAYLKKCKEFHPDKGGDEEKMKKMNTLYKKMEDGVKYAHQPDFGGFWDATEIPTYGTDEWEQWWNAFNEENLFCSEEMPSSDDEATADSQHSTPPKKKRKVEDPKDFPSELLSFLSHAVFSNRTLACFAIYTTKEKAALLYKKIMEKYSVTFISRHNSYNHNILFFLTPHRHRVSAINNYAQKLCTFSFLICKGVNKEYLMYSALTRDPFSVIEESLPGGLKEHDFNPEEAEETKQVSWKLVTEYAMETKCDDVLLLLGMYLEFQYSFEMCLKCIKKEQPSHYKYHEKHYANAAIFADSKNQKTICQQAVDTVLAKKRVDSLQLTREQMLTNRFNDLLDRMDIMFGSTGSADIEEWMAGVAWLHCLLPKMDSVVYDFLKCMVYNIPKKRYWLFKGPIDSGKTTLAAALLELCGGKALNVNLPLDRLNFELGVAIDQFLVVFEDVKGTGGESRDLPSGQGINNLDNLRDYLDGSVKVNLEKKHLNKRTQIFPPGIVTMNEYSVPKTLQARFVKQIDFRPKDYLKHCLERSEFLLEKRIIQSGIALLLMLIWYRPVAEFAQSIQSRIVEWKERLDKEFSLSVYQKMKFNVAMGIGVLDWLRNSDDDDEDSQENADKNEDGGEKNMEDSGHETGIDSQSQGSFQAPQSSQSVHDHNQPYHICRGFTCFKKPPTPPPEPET

EC50 [1]: > 300 µM (not active) | EC50 [2]: 142 µM (active) | EC50 [3]: 6.81 µM (active)
Compound: Cc1ccc(-n2ncc3c(NNC(=O)c4ccco4)ncnc32)cc1C

IC50 [4]: > 100 µM (inactive) | IC50 [5]: 36 µM (active) | IC50 [6]: > 100 µM (inactive)
Compound: COc1ccccc1-c1cc(C(=O)Nc2cc(C)nn2-c2ccccc2)no1

Compound: CCOc1ccc(NC(=O)CSc2nncc(=O)n2N)cc1
IC50 [7]: 12 µM (inactive) | IC50 [8]: 35.9 µM (inactive) | IC50 [9]: 35.9 µM (inactive)

IC50 [10]: 9.11 µM (active) | IC50 [11]: 6.85 µM (active) | IC50 [12]: 8.79 µM (active) | IC50 [13]: 17.1 µM (active)
Compound: O=C(N/N=C/c1ccc(Br)cc1)c1ccc(Br)o1

Compound: COc1cc(/C=C2\SC(c3ccc(C)cc3)=NC2=O)cc(OC)c1O
IC50 [4]: 42.1 µM (active) | IC50 [5]: 2.18 µM (active) | IC50 [6]: 1.37 µM (active) | IC50 [14]: 63.1 µM (inactive) | IC50 [15]: 16.5 µM (active)

Reference: ChEMBL document CHEMBL1201862, “PubChem BioAssay data set” (2004)
